Test results reported in paper PMC10286718, “Amino Acid Starvation-Induced Glutamine Accumulation Enhances Pneumococcal Survival” (mSphere, 2023).

How the values were obtained:
SPD1098 SBD1 (GlnP) = biological target: T1, SPD1098 SBD1 (GlnP) (Streptococcus pneumoniae, UniProt A0A0H2ZPN9); assay: isothermal titration calorimetry; type: binding
T1 construct: gene SPD_1098
T1 sequence (A0A0H2ZPN9 24-247): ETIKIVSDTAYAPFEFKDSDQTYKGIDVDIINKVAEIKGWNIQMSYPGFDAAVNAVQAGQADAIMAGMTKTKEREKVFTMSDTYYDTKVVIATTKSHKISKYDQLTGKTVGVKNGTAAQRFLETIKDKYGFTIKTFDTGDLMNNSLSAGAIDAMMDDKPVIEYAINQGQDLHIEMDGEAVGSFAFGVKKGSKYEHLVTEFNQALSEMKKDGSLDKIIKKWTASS
Description: isothermal titration calorimetry on SPD1098 SBD1 (GlnP)

SPD1098 SBD2 (GlnP) = biological target: T2, SPD1098 SBD2 (GlnP) (Streptococcus pneumoniae, UniProt A0A0H2ZPN9); assay: isothermal titration calorimetry; type: binding
T2 construct: gene SPD_1098
T2 sequence (A0A0H2ZPN9 262-488): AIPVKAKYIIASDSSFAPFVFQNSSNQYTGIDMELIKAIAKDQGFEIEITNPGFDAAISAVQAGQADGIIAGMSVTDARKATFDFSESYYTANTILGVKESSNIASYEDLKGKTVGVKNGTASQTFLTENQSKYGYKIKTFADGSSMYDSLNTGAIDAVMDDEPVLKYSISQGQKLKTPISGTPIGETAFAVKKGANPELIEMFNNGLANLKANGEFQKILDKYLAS
Description: isothermal titration calorimetry on SPD1098 SBD2 (GlnP)

SMILES | Kd (SPD1098 SBD1 (GlnP)) [nM] | Kd (SPD1098 SBD2 (GlnP)) [nM]
NC(=O)C[C@H](N)C(=O)O [asparagine] | 1090 | 
NC(=O)CC[C@H](N)C(=O)O [glutamine] |  | 890
